Test [1] has as its system primary astrocytes and microglial cells. Kind of test: Nitrites measurement (Griess reaction) in LPS-stimulated primary glial cells. The class given is cell-based, rat. Conditions: for reduction of LPS-induced nitrite production: compounds 10 μM for 1 hour, then LPS 10 μg/mL for 24 hours, astrocytes and microglia, potency compared with 6-amino triazinones A-C (FIGS. 2A, 2B); for nitrite production in astrocyte cells: compounds 10 μM, LPS 10 μg/mL 24 hours, astrocyte cells (FIG. 2A). As to the method:
Astrocytes were prepared from neonatal (P2) rat cerebral cortex, as previously described by Luna-Medina et al. [Luna-Medina, R.; Cortes-Canteli, M.; Alonso, M.; Santos, A.; Martinez, A.; Perez-Castillo, A. Regulation of inflammatory response in neural cells in vitro by thiadiazolidinones derivatives through peroxisome proliferator-activated receptor gamma activation. J. Biol. Chem. 2005, 280, 21453-21462].
Briefly, after removal of the meninges, the cerebral cortex was dissected, dissociated, and incubated with 0.25% trypsin/EDTA at 37° C. for 1 hour. After centrifugation, the pellet was washed 3 times with Hank's balanced salt solution (HBSS) (Gibco) and the cells were placed on noncoated flasks and maintained in HAMS/Dulbecco's modified eagle's medium (DMEM) (1:1) medium containing 10% of fetal bovine serum (FBS). After 15 days, the flasks were agitated on an orbital shaker for 4 hours at 240 rpm at 37° C., the supernatant was collected, centrifuged, and the cellular pellet containing the microglial cells resuspended in complete medium (HAMS/DMEM (1:1) containing 10% FBS) and seeded on uncoated 96-well plates. Cells were allowed to adhere for 2 hours, and the medium was removed to eliminate nonadherent oligodendrocytes. New fresh medium containing 10 ng/mL of granulocyte-macrophage colony-stimulating factor (GM-CSF) was added. The remaining astroglial cells adhered on the flasks were then trypsinized, collected, centrifugated, and plated onto 96-well plates with complete medium. The purity of cultures obtained by this procedure was >98% as determined by immunofluorescence with the OX42 (microglial marker) and the glial fibrillary acidic protein (GFAP, astroglial marker) antibodies.
The potential anti-inflammatory activity of the selected compounds was tested by evaluating the production of nitrites from primary cultured glial cells. Primary cultures of astrocytes and microglia were incubated with the selected compounds (10 μM) for 1 hour, and then cells were cultured for another 24 hours with a potent inflammatory agent, such as lipopolysaccharide (LPS) (10 μg/mL). LPS is able to induce nitrite production and accumulation in the culture medium, which was assayed by the standard Griess reaction. Supernatants were collected from the media and mixed with an equal volume of Griess reagent (Sigma). Samples were then incubated at rt for 15 minutes and absorbance read using a plate reader at 492/540 nm.

Test [2] deals with triggering receptor expressed on myeloid cells 2 (TREM2). Kind of test: Western blot analysis of TREM2 (M2 marker) in LPS-treated microglia cells. In kind it is cell-based, rat. The note with it: LPS 100 ng/mL, 24 hours co-treatment; microglia cells (FIG. 5c). As to the method: Mixed glial cell cultures were prepared from cerebral cortex of newborn Wistar rats (Rattus norvegicus), as previously described [Monti, B.; D'Alessandro, C.; Farini, V.; Bolognesi, A.; Polazzi, E.; Contestabile, A.; Stirpe, F.; Battelli, M. G. In vitro and in vivo toxicity of type 2 ribosome-inactivating proteins lanceolin and stenodactylin on glial and neuronal cells. Neurotoxicology 2007, 28, 637-644]. Briefly, brain tissue was cleaned from meninges, trypsinized for 15 minutes at 37° C. and, after mechanical dissociation, the cell suspension was washed and plated on poly-L-lysine (Sigma-Aldrich, St. Louis, Mo., USA, 10 μg/mL) coated flasks (75 cm^2). Mixed glial cells were cultured for 10-13 days in Basal Medium Eagle (BME, Life technologies Ltd, Paisley, UK) supplemented with 100 mL/L heat-inactivated FBS (Life technologies), 2 mmol/L glutamine (Sigma-Aldrich) and 100 μmol/L gentamicin sulfate (Sigma-Aldrich).
Microglial cells were harvested from mixed glial cell cultures by mechanical shaking, resuspended in fresh medium without serum and plated on uncoated 35 mm Ø dishes at a density of 1.5×10^6 cells/1.5 mL medium/well for western blot analysis or on 96 wells at 1×10^5 cells/0.2 mL medium/well for MTT assay. […]
J. Biol. Chem. 1951, 193, 265-275]. […] Labelled proteins were detected by using the enhanced chemiluminescence method (ECL; Bio-RAD). […]

`CCCNC1=NC(c2ccc(F)cc2)NC(=O)N1` (stereo not drawn) [Example 6, 4-(4-fluorophenyl)-6-(propylamino)-3,4-dihydro-1,3,5-triazin-2(1H)-one]: in test [1], the “reduction of LPS-induced nitrite production” value is “higher potency” and the “nitrite production in astrocyte cells” value was “restore nitrite production to basal level”. In addition, the “TREM2 expression reduced by LPS” value in test [2] was “restored”.
`CCNC1=NC(c2ccc(F)cc2)NC(=O)N1` (racemic) [Example 3, 6-(ethylamino)-4-(4-fluorophenyl)-3,4-dihydro-1,3,5-triazin-2(1H)-one]: in test [1], the “reduction of LPS-induced nitrite production” value was “higher potency” and the “nitrite production in astrocyte cells” value is “restore nitrite production to basal level”. Moreover, in test [2], the “TREM2 expression reduced by LPS” value was “restored”.

The values above are taken from patent US9975861B2, “Dual inhibitor compounds for use in the treatment of neurodegenerative disorders and alzheimer's disease” (FONDAZIONE ISTITUTO ITALIANO DI TECNOLOGIA, priority 2014, dated 2018).
